Experimental data: publication PMC4594923, “Food Polyphenols Fail to Cause a Biologically Relevant Reduction of COX-2 Activity” (PLoS ONE, 2015)
Entries after “also recorded” stand apart in the source; their conditions may differ. Marks after values point to notes of the source that are not given here.

Assays:
[1] = tested on: arachidonic acid (AA) cascade; assay: kidney tissue oxylipin/PG levels in LPS induced sepsis in mice;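 note: male C57BL/6N mice challenged with LPS, kidney taken 24 h later, oxylipins quantified by LC-MS after solid-phase extraction of tissue homogenate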
[2] = tested on: arachidonic acid (AA) cascade; assay: plasma oxylipin/PG levels in LPS induced sepsis in mice;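 note: male C57BL/6N mice given LPS, plasma oxylipins quantified by LC-MS after solid-phase extraction, pretreatment or vehicle given intraperitoneally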; format: in vivo, C57BL/6N mice; conditions: mice, 24 h after LPS, vs. LPS group
Description: Twelve week old male C57BL/6N mice (Charles River, Sulzfeld, Germany) were used for all experiments. C57BL/6 male mice (H2^b, 11–13 weeks of age) were obtained from Charles River (Sulzfeld, Germany). Animals were cared for in accordance with the institution’s guidelines for experimental animals and with the guidelines of the American Physiological Society. […] Mice were monitored closely and if they appeared compromised (i.e. inactivity, no intake of food or water) after compound or LPS injection the experiment was terminated.
Oxylipin levels were analyzed in plasma and tissues by LC-MS following SPE extraction of 200 μl plasma or tissue homogenate (50 mg) on Chromabond C18 ec cartridges (Machery-Nagel, Düren, Germany) [19].
GraphPad Prism 5.0 (GraphPad Software, San Diego, USA) was used for data analysis, the fitting of dose response curves and calculation of the IC50 values. Statistical differences were determined by Dunnetts test (LPS vs. other groups).

[3] = tested on: IL–6; assay: kidney IL–6 mRNA (qPCR) in LPS induced sepsis in mice; format: in vivo, C57BL/6N mice; conditions: compound i. p. 100 mg/kg bw 2 h before LPS, 24 h after LPS
Description: (§1) Samples were stored at -80°C till further analysis. […] Plasma was generated by centrifugation at 4000 g at 4°C and stored at -80°C till further analysis.
(§2) Tissue sections were stored in RNA-later immediately after organ retrieval. Total RNA was extracted using the RNeasy mini kit system (Qiagen, Hilden, Germany) and transcribed using Superscript II Reverse transcriptase (Invitrogen). Quantitative (q) PCR was performed on […] (Roche Diagnostics, Penzberg, Germany) using FastStart Sybr-Green chemistry. Gene-specific primers for IL–6 (Quantitec QT00098875, Qiagen) and MCP–1 (Quantitec QT00167832, Qiagen) were used for the gene of interest and HPRT served as house keeping gene for normalization (Quantitec QT00166768, Qigaen). Quantification was carried out using qgene software.

[4] = clinical chemistry in plasma (urea, creatinine, AST, ALT, LDH) in LPS induced sepsis in mice; format: in vivo, C57BL/6N mice; conditions: compound i. p. 100 mg/kg bw 2 h before LPS, 24 h after LPS
[5] = tested on: MCP–1; assay: kidney MCP–1 mRNA (qPCR) in LPS induced sepsis in mice; format: in vivo, C57BL/6N mice; conditions: compound i. p. 100 mg/kg bw 2 h before LPS, 24 h after LPS, vs. LPS group
Description: as §1, §2

[6] = kidney tissue 24 h after LPS treatment, LPS +, mean
[7] = kidney tissue 24 h after LPS treatment, LPS +, mean, < = below LOQ
[8] = mice, compound i. p. 100 mg/kg bw 2 h before LPS, 24 h after LPS, vs. LPS group
[9] = compound i. p. 100 mg/kg bw 2 h before LPS (10 mg/kg bw i. p.)

Cc1ccc(-c2cc(C(F)(F)F)nn2-c2ccc(S(N)(=O)=O)cc2)cc1 [celecoxib, reference compound]
1a,1b-dihomo-PGF2α [1, 6]: 0.54^* nM
4,5-DiHDPE [1, 6]: 22^‡ nM
4-HDHA [1, 6]: 21 nM
5(6)-EpETrE [1, 6]: 130^† nM
5,6-DiHETrE [1, 6]: 2.1^‡ nM
5-HEPE [1, 6]: 1.5^‡ nM
5-HETE [1, 6]: 16^‡ nM
5-oxo-ETE [1, 6]: 31 nM
6-keto-PGF1α [1, 6]: 36 nM
7,8-DiHDPE [1, 6]: 1.9 nM
7-HDHA [1, 6]: 4.8^‡ nM
8(9)-EpETrE [1, 6]: 30^† nM
8,9-DiHETrE [1, 6]: 1.7 nM
8-HDHA [1, 6]: 24^‡ nM
8-HETE [1, 6]: 4.6 nM
8-iPF2a [1, 6]: 1.2 nM
9(10)-EpOME [1, 6]: 160^* nM
9(10)-Epoxystearic acid [1, 6]: 81^† nM
9,10,13-TriHOME [1, 6]: 4.1 nM
9,10-DiHODE [1, 6]: 1.3 nM
9,10-DiHOME [1, 6]: 17^* nM
9,10-Dihydroxystearic acid [1, 6]: 58 nM
9,12,13-TriHOME [1, 6]: 24 nM
9-HETE [1, 6]: 4.0^* nM
9-HODE [1, 6]: 160 nM
9-HOTrE [1, 6]: 4.3 nM
9-oxo-ODE [1, 6]: 51 nM
10(11)-EpDPE [1, 6]: 70^‡ nM
10,11-DiHDPE [1, 6]: 2.0 nM
10-HDHA [1, 6]: 4.3 nM
11(12)-EpETE [1, 6]: 3.5^* nM
11(12)-EpETrE [1, 6]: 77^† nM
11,12-DiHETrE [1, 6]: 1.7^* nM
11-HDHA [1, 6]: 6.6^* nM
11-HETE [1, 6]: 10 nM
12(13)-EpOME [1, 6]: 120^† nM
12,13-DiHOME [1, 6]: 28^† nM
12-HEPE [1, 6]: 2.9 nM
12-HETE [1, 6]: 29 nM
13(14)-EpDPE [1, 6]: 55^† nM
13,14-DiHDPE [1, 6]: 1.5^‡ nM
13,14-dihydro-15-keto-PGF2α [1, 6]: 0.72^† nM
13-HDHA [1, 6]: 6.0 nM
13-HODE [1, 6]: 140 nM
13-HOTrE [1, 6]: 5.2 nM
13-oxo-ODE [1, 6]: 9.2 nM
14(15)-EpETE [1, 6]: 4.2^* nM
14(15)-EpETrE [1, 6]: 57^† nM
14,15-DiHETE [1, 6]: 0.34^‡ nM
14,15-DiHETrE [1, 6]: 3.3^‡ nM
14-HDHA [1, 6]: 17 nM
15(16)-EpODE [1, 6]: 55 nM
15(S)-HETrE [1, 6]: 4.0 nM
15,16-DiHODE [1, 6]: 21 nM
15-HETE [1, 6]: 19 nM
15-oxo-ETE [1, 6]: 8.4 nM
16(17)-EpDPE [1, 6]: 52^‡ nM
16,17-DiHDPE [1, 6]: 2.8^‡ nM
16-HDHA [1, 6]: 6.1 nM
17,18-DiHETE [1, 6]: 2.1^‡ nM
18-HEPE [1, 6]: 1.3 nM
19(20)-EpDPE [1, 6]: 78^* nM
19,20-DiHDPE [1, 6]: 29^‡ nM
20-HDHA [1, 6]: 18 nM
20-HEPE [1, 6]: 5.3 nM
EKODE [1, 6]: 41 nM
PGD2 [1, 6]: 7.4 nM
PGE1 [1, 6]: 2.5 nM
PGE2 [1, 6]: 45 nM
PGF1α [1, 6]: 1.4^† nM
PGF2α [1, 6]: 15 nM
TXB2 [1, 6]: 1.3 nM
5-iPF2α [1, 7]: < 1.0 nM
8(9)-EpETE [1, 7]: 2.4^* nM
12,13-DiHODE [1, 7]: < 2.0 nM
13,14-dihydro-15-keto-PGE1 [1, 7]: < 0.1 nM
20-HETE [1, 7]: < 2.7 nM
PGD1 [1, 7]: < 0.50 nM
PGF2α ([1]; kidney tissue 24 h after LPS treatment, LPS +, mean, second listing of PGF2α (r9)): 15 nM
kidney 13,14-dihydro-15-keto-PGE1 level [1, 8]: <LOQ
kidney 13,14-dihydro-15-keto-PGE2α level [1, 8]: lowered
plasma 6-keto-PGF1α level [2, 9]: below the limit of quantification; also recorded: decreased
plasma 13,14-dihydro-15-keto-PGE1 level [2, 9]: below the limit of quantification; also recorded: decreased
plasma 13,14-dihydro-15-keto-PGF2α level [2, 9]: massively decreased
plasma PG levels (LPS induced PG increase) [2, 9]: effectively attenuated; also recorded: reduced
plasma PGE2 level [2, 9]: massively decreased
plasma PGF2α level [2, 9]: below the limit of quantification
plasma epoxy- and dihydroxy-fatty acid (FA) metabolites of the CYP pathway ([2]; compound i. p. 100 mg/kg bw 2 h before LPS): decreased
further increase of kidney IL–6 mRNA expression in comparison to LPS group [3]: 9 fold
plasma ALT activity [4]: elevated; also recorded: moderate elevation
plasma AST activity [4]: elevated; also recorded: moderate elevation
plasma LDH activity [4]: moderate elevation
plasma creatinine level [4]: elevation
plasma urea level [4]: elevation
kidney MCP–1 mRNA levels [5]: did not affect
